From patent publication US20030207863A1, “Preventives and remedies for central nervous system diseases” (priority 2000, published 2003)

Test system: IMR32 cells
Test: Amyloid β protein in culture supernatant of IMR32 cells after addition of urotensin II, by enzyme immunoassay
Assay type: cell-based
Conditions: cultured 24 hours
Description: Test compound 1 was added to IMR32 cells at various concentrations (μM) 10 minutes before addition of 10 nM of urotensin II. Then, urotensin II was added in the presence or absence of test compound 1, the mixture was cultured for 24 hours, and the amount of amyloid β protein in the supernatant of the culture was determined by enzyme immunoassay (Biochemistry, Vol.34, No.32, pp. 10272-10278, (1995)). Test compound 2 as described hereinafter (the compound of Synthesis Example 5) was used and added at a concentration of 1 nM, and the amount of amyloid β protein was determined in the same manner as that of Experimental Example 1. Namely, IMR32 cells were used and test compound 2 was added at a concentration of 1 nM 10 minutes before addition of 10 nM of urotensin II. After addition of urotensin II, the mixture was cultured for 24 hours and the amount of amyloid β protein in the supernatant of the culture was determined by enzyme immunoassay.

SMILES | suppression of increase in the selective secretion of amyloid β40 by urotensin II (test compound at various concentrations (μM) added 10 minutes before 10 nM urotensin II, FIG. 1) | suppression of increase of amyloid β40 by urotensin II (test compound at 1 nM added 10 minutes before 10 nM urotensin II, FIG. 2)
Cc1ccc2nc3c(c(N)c2c1)CCN3Cc1ccccc1 [test compound 1] | concentration-dependently suppressed | 
Cl.NS(=O)(=O)c1ccc(CCN(Cc2cccc(-c3cccc(C(=O)NCCN4CCCC4)c3)c2)C(=O)CCCc2ccccc2)cc1 [test compound 2, 3′-{({2-[4-(Aminosulfonyl)phenyl]ethyl}[4-phenylbutanoyl]amino)methyl}-N-[2-(1-pyrrolidinyl)ethyl][1,1′-biphenyl]-3-carboxamide Hydrochloride] |  | completely suppressed
